Results: patent US12077503B2, “Substituted cyclic amides and their use as herbicides” (FMC CORPORATION, priority 2015, dated 2024)

Columns and labels:
Assay type in all cases: in vivo
[1] = tested on: barnyardgrass (Echinochloa crus-galli); assay: Test G Pre-Emergence Protocol; conditions: Echinochloa crus-galli, pre-emergence, 312 h, evaluated after 13 days; for pest or weed control at 15.625 g/ha: 15.625 g ai/ha, read-out: Barnyard grass damage rating (100=total damage to plant; 0=no damage to plant); for pest or weed control at 62.5 g/ha: 62.5 g ai/ha, 100=total damage to plant, 0=no damage to plant, read-out: plant damage rating, Barnyardgrass; for pest or weed control at 250 g/ha: 250 g ai/ha, read-out: Barnyardgrass damage rating (100=total damage to plant; 0=no damage to plant)
Summary of the method: (§1)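 Under a 24/16° C day/night regime with 14 h light and 65% humidity, sown pots were sprayed after one day with compound (15.625, 62.5 or 250 g/ha; 50:50 acetone/water, 0.5% Tween 20). Damage was assessed visually 13 days later, 0 to 100.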

corn (Zea mays) [2] = assay: Test G Pre-Emergence Protocol; conditions: Zea mays, pre-emergence, 312 h, evaluated after 13 days; for plant injury at 15.625 g/ha: 15.625 g ai/ha; for plant injury at 15.625 g/ha / plant injury at 250 g/ha: read-out: Corn damage rating (100=total damage to plant; 0=no damage to plant); for plant injury at 62.5 g/ha: 62.5 g ai/ha, 100=total damage to plant, 0=no damage to plant, read-out: plant damage rating, Corn; for plant injury at 250 g/ha: 250 g ai/ha
Summary of the method: as §1

[3] = tested on: giant foxtail (Setaria faberi); assay: Test G Pre-Emergence Protocol; conditions: Setaria faberi, pre-emergence, 312 h, evaluated after 13 days; for pest or weed control at 15.625 g/ha: 15.625 g ai/ha; for pest or weed control at 15.625 g/ha / pest or weed control at 250 g/ha: read-out: Foxtail, Giant damage rating (100=total damage to plant; 0=no damage to plant); for pest or weed control at 62.5 g/ha: 62.5 g ai/ha, 100=total damage to plant, 0=no damage to plant, read-out: plant damage rating, Foxtail, Giant; for pest or weed control at 250 g/ha: 250 g ai/ha
Summary of the method: as §1

[4] = tested on: ivy-leaved morning glory (Ipomoea hederacea); assay: Test G Pre-Emergence Protocol; conditions: Ipomoea, pre-emergence, 312 h, evaluated after 13 days; for pest or weed control at 15.625 g/ha: 15.625 g ai/ha, read-out: Morning-glory, Ivy-leaved damage rating (100=total damage to plant; 0=no damage to plant); for pest or weed control at 62.5 g/ha: 62.5 g ai/ha, 100=total damage to plant, 0=no damage to plant, read-out: plant damage rating, Morningglory, Ivy-leaved; for pest or weed control at 250 g/ha: 250 g ai/ha, read-out: Morningglory, Ivy-leaved damage rating (100=total damage to plant; 0=no damage to plant)
Summary of the method: as §1

[5] = tested on: redroot pigweed (Amaranthus retroflexus); assay: Test G Pre-Emergence Protocol; conditions: Amaranthus retroflexus, pre-emergence, 312 h, evaluated after 13 days; for pest or weed control at 15.625 g/ha: 15.625 g ai/ha; for pest or weed control at 15.625 g/ha / pest or weed control at 250 g/ha: read-out: Pigweed, Redroot damage rating (100=total damage to plant; 0=no damage to plant); for pest or weed control at 62.5 g/ha: 62.5 g ai/ha, 100=total damage to plant, 0=no damage to plant, read-out: plant damage rating, Pigweed, Redroot; for pest or weed control at 250 g/ha: 250 g ai/ha
Summary of the method: as §1

[6] = tested on: velvetleaf (Abutilon theophrasti); assay: Test G Pre-Emergence Protocol; conditions: Abutilon theophrasti, pre-emergence, 312 h, evaluated after 13 days; for pest or weed control at 15.625 g/ha: 15.625 g ai/ha; for pest or weed control at 15.625 g/ha / pest or weed control at 250 g/ha: read-out: Velvetleaf damage rating (100=total damage to plant; 0=no damage to plant); for pest or weed control at 62.5 g/ha: 62.5 g ai/ha, 100=total damage to plant, 0=no damage to plant, read-out: plant damage rating, Velvetleaf; for pest or weed control at 250 g/ha: 250 g ai/ha
Summary of the method: as §1

[7] = tested on: barnyardgrass (Echinochloa crus-galli); assay: Test G Post-Emergence Protocol; conditions: Echinochloa crus-galli, post-emergence, 312 h; for pest or weed control at 15.625 g/ha: 15.625 g ai/ha, evaluated after 13 days (100=total damage to plant; 0=no damage to plant), read-out: Barnyardgrass damage rating; for pest or weed control at 62.5 g/ha: 62.5 g ai/ha, read-out: Barnyardgrass damage rating (100=total damage to plant; 0=no damage to plant); for pest or weed control at 62.5 g/ha / pest or weed control at 250 g/ha: evaluated after 13 days; for pest or weed control at 250 g/ha: 250 g ai/ha, read-out: damage to plant, Barnyardgrass (100=total damage to plant; 0=no damage to plant)
Summary of the method: (§2)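 Scores run 0 (no damage) to 100 (total damage) and were taken 13 days after spraying. Plants had been raised in pots for 8 days under glasshouse control (24/16 °C, 14 h photoperiod, 65% humidity) and then treated at 15.625, 62.5 or 250 g/ha.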

corn (Zea mays) [8] = assay: Test G Post-Emergence Protocol; conditions: Zea mays, post-emergence, 312 h; for plant injury at 15.625 g/ha: 15.625 g ai/ha, evaluated after 13 days (100=total damage to plant; 0=no damage to plant), read-out: Corn damage rating; for plant injury at 62.5 g/ha: 62.5 g ai/ha, read-out: Corn damage rating (100=total damage to plant; 0=no damage to plant); for plant injury at 62.5 g/ha / plant injury at 250 g/ha: evaluated after 13 days; for plant injury at 250 g/ha: 250 g ai/ha, read-out: damage to plant, Corn (100=total damage to plant; 0=no damage to plant)
Summary of the method: as §2

[9] = tested on: giant foxtail (Setaria faberi); assay: Test G Post-Emergence Protocol; conditions: Setaria faberi, post-emergence, 312 h; for pest or weed control at 15.625 g/ha: 15.625 g ai/ha, evaluated after 13 days (100=total damage to plant; 0=no damage to plant), read-out: Foxtail, Giant damage rating; for pest or weed control at 62.5 g/ha: 62.5 g ai/ha, read-out: Foxtail, Giant damage rating (100=total damage to plant; 0=no damage to plant); for pest or weed control at 62.5 g/ha / pest or weed control at 250 g/ha: evaluated after 13 days; for pest or weed control at 250 g/ha: 250 g ai/ha, read-out: damage to plant, Foxtail, Giant (100=total damage to plant; 0=no damage to plant)
Summary of the method: as §2

[10] = tested on: ivy-leaved morning glory (Ipomoea hederacea); assay: Test G Post-Emergence Protocol; conditions: Ipomoea, post-emergence, 312 h; for pest or weed control at 15.625 g/ha: 15.625 g ai/ha, evaluated after 13 days (100=total damage to plant; 0=no damage to plant), read-out: Morningglory, Ivy-leaved damage rating; for pest or weed control at 62.5 g/ha: 62.5 g ai/ha, read-out: Morningglory, Ivy-leaved damage rating (100=total damage to plant; 0=no damage to plant); for pest or weed control at 62.5 g/ha / pest or weed control at 250 g/ha: evaluated after 13 days; for pest or weed control at 250 g/ha: 250 g ai/ha, read-out: damage to plant, Morningglory, Ivy-leaved (100=total damage to plant; 0=no damage to plant)
Summary of the method: as §2

[11] = tested on: redroot pigweed (Amaranthus retroflexus); assay: Test G Post-Emergence Protocol; conditions: Amaranthus retroflexus, post-emergence, 312 h; for pest or weed control at 15.625 g/ha: 15.625 g ai/ha, evaluated after 13 days (100=total damage to plant; 0=no damage to plant), read-out: Pigweed, Redroot damage rating; for pest or weed control at 62.5 g/ha: 62.5 g ai/ha, read-out: Pigweed, Redroot damage rating (100=total damage to plant; 0=no damage to plant); for pest or weed control at 62.5 g/ha / pest or weed control at 250 g/ha: evaluated after 13 days; for pest or weed control at 250 g/ha: 250 g ai/ha, read-out: damage to plant, Pigweed, Redroot (100=total damage to plant; 0=no damage to plant)
Summary of the method: as §2

[12] = tested on: velvetleaf (Abutilon theophrasti); assay: Test G Post-Emergence Protocol; conditions: Abutilon theophrasti, post-emergence, 312 h; for pest or weed control at 15.625 g/ha: 15.625 g ai/ha, evaluated after 13 days (100=total damage to plant; 0=no damage to plant), read-out: Velvetleaf damage rating; for pest or weed control at 62.5 g/ha: 62.5 g ai/ha, read-out: Velvetleaf damage rating (100=total damage to plant; 0=no damage to plant); for pest or weed control at 62.5 g/ha / pest or weed control at 250 g/ha: evaluated after 13 days; for pest or weed control at 250 g/ha: 250 g ai/ha, read-out: damage to plant, Velvetleaf (100=total damage to plant; 0=no damage to plant)
Summary of the method: as §2

| Structure (SMILES) | pest or weed control at 15.625 g/ha [1] | pest or weed control at 62.5 g/ha [1] | pest or weed control at 250 g/ha [1] | plant injury at 15.625 g/ha (corn (Zea mays) [2]) | plant injury at 62.5 g/ha (corn (Zea mays) [2]) | plant injury at 250 g/ha (corn (Zea mays) [2]) | pest or weed control at 15.625 g/ha [3] | pest or weed control at 62.5 g/ha [3] | pest or weed control at 250 g/ha [3] | pest or weed control at 15.625 g/ha [4] | pest or weed control at 62.5 g/ha [4] | pest or weed control at 250 g/ha [4] | pest or weed control at 15.625 g/ha [5] | pest or weed control at 62.5 g/ha [5] | pest or weed control at 250 g/ha [5] | pest or weed control at 15.625 g/ha [6] | pest or weed control at 62.5 g/ha [6] | pest or weed control at 250 g/ha [6] | pest or weed control at 15.625 g/ha [7] | pest or weed control at 62.5 g/ha [7] | other results |
| --- | --- | --- | --- | --- | --- | --- | --- | --- | --- | --- | --- | --- | --- | --- | --- | --- | --- | --- | --- | --- | --- |
| CN1C[C@H](c2ccc(C(F)(F)F)cc2)[C@@H](C(=O)Nc2cccc3nsnc23)C1=O (racemic) [Compound 1430] | 0% | 20% | 60% | 0% | 0% | 0% | 10% | 50% | 80% | 0% | 0% | 0% | 0% | 0% | 0% | 0% | 0% | 0% | 0% | 0% | pest or weed control at 250 g/ha [7]: 30%; plant injury at 15.625 g/ha (corn (Zea mays) [8]): 0%; plant injury at 62.5 g/ha (corn (Zea mays) [8]): 0%; plant injury at 250 g/ha (corn (Zea mays) [8]): 0%; pest or weed control at 15.625 g/ha [9]: 0%; pest or weed control at 62.5 g/ha [9]: 10%; pest or weed control at 250 g/ha [9]: 50%; pest or weed control at 15.625 g/ha [10]: 0%; pest or weed control at 62.5 g/ha [10]: 0%; pest or weed control at 250 g/ha [10]: 0%; pest or weed control at 15.625 g/ha [11]: 0%; pest or weed control at 62.5 g/ha [11]: 0%; pest or weed control at 250 g/ha [11]: 20%; pest or weed control at 15.625 g/ha [12]: 0%; pest or weed control at 62.5 g/ha [12]: 0%; pest or weed control at 250 g/ha [12]: 0% |
| C=CCc1ccc(Cl)cc1NC(=O)[C@H]1C(=O)N(C)C[C@@H]1c1ccc(C(F)(F)F)cc1 (racemic) [Compound 1441] | 0% | 0% | 0% | 0% | 0% | 0% | 0% | 0% | 0% | 0% | 0% | 0% | 0% | 0% | 0% | 0% | 0% | 0% | 0% | 0% | pest or weed control at 250 g/ha [7]: 0%; plant injury at 15.625 g/ha (corn (Zea mays) [8]): 0%; plant injury at 62.5 g/ha (corn (Zea mays) [8]): 0%; plant injury at 250 g/ha (corn (Zea mays) [8]): 20%; pest or weed control at 15.625 g/ha [9]: 0%; pest or weed control at 62.5 g/ha [9]: 0%; pest or weed control at 250 g/ha [9]: 20%; pest or weed control at 15.625 g/ha [10]: 0%; pest or weed control at 62.5 g/ha [10]: 0%; pest or weed control at 250 g/ha [10]: 0%; pest or weed control at 15.625 g/ha [11]: 0%; pest or weed control at 62.5 g/ha [11]: 0%; pest or weed control at 250 g/ha [11]: 0%; pest or weed control at 15.625 g/ha [12]: 0%; pest or weed control at 62.5 g/ha [12]: 0%; pest or weed control at 250 g/ha [12]: 0% |
| CN1C[C@@H](c2ccc(C(F)(F)F)nc2)[C@H](C(=O)Nc2ccccc2S(C)(=O)=O)C1=O (racemic) [Compound 1586] | 0% | 0% | 90% | 0% | 10% | 30% | 0% | 20% | 70% | 0% | 0% | 10% | 0% | 40% | 60% | 0% | 0% | 30% | 0% | 0% | pest or weed control at 250 g/ha [7]: 50%; plant injury at 15.625 g/ha (corn (Zea mays) [8]): 0%; plant injury at 62.5 g/ha (corn (Zea mays) [8]): 0%; plant injury at 250 g/ha (corn (Zea mays) [8]): 30%; pest or weed control at 15.625 g/ha [9]: 0%; pest or weed control at 62.5 g/ha [9]: 0%; pest or weed control at 250 g/ha [9]: 70%; pest or weed control at 15.625 g/ha [10]: 0%; pest or weed control at 62.5 g/ha [10]: 0%; pest or weed control at 250 g/ha [10]: 40%; pest or weed control at 15.625 g/ha [11]: 0%; pest or weed control at 62.5 g/ha [11]: 0%; pest or weed control at 250 g/ha [11]: 40%; pest or weed control at 15.625 g/ha [12]: 0%; pest or weed control at 62.5 g/ha [12]: 10%; pest or weed control at 250 g/ha [12]: 10% |
